The target in series [1] is T1, h5-HT2A receptor (Homo sapiens, UniProt P28223). The settings on record: data not shown.
The target in series [2] is T2, hNET (Homo sapiens, UniProt P23975). Briefly: Superfusion release of preloaded [3H]NE from HEK-hNET cells. The series is classed as cell-based.
Series [3] addresses T2, hNET. Nature of the series: biochemical. The series is classed as binding.
Series [4] deals with T3, hSERT (Homo sapiens, UniProt P31645). Briefly: Inhibition of [125I]RTI-55 binding, HEK-hSERT membranes.
T3 sequence (P31645 whole entry, the tested form may be a part): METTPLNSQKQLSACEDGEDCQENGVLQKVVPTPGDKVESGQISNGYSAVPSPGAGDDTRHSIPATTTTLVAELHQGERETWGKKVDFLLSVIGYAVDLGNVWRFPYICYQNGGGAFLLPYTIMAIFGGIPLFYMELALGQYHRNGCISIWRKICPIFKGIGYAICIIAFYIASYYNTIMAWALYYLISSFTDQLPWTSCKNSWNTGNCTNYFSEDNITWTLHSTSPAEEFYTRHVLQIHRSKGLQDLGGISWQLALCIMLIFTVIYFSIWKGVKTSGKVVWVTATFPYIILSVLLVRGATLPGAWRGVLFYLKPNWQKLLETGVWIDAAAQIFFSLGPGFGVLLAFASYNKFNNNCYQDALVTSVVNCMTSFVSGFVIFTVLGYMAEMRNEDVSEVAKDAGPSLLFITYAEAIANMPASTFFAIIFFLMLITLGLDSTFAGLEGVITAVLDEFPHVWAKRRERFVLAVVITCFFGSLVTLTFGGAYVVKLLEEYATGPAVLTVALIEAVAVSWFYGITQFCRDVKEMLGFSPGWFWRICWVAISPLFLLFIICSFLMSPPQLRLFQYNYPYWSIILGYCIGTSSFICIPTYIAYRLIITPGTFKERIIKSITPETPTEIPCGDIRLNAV
Series [5] deals with T4, hDAT (Homo sapiens, UniProt Q01959). Briefly: Superfusion release of preloaded [3H]DA from HEK-hDAT cells. Type of series: cell-based.
T4 sequence (Q01959 whole entry, the tested form may be a part): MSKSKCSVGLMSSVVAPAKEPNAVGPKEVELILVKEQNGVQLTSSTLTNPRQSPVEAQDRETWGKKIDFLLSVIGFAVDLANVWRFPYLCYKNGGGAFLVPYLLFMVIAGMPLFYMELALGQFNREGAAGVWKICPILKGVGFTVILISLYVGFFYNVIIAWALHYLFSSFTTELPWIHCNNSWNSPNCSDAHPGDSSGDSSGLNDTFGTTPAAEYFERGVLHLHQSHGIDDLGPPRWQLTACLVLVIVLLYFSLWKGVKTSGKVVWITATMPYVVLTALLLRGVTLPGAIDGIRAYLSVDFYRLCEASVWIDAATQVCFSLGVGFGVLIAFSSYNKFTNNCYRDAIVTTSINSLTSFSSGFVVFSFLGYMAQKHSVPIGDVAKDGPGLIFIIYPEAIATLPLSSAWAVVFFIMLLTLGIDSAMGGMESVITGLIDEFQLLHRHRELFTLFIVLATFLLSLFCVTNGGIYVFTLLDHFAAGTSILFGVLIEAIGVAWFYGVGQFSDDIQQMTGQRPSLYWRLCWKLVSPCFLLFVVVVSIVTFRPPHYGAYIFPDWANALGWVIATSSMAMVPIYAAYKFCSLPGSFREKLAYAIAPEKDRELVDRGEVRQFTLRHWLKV
The target of a further series is hSigma1 receptor (Homo sapiens, UniProt Q99720). Briefly: [3H]. The settings on record: Inhibition of [3H]pentazocine binding Ki ± sem, hSigma1. The series is classed as binding.
Chain of hSigma1 receptor (Q99720 whole entry): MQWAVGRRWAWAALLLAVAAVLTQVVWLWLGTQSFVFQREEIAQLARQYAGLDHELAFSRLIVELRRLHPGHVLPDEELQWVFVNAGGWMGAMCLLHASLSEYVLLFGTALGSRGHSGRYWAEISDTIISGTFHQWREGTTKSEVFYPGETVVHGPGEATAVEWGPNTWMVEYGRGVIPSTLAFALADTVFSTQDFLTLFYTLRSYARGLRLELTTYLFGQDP
For series [6] the following is noted: blood from heart, periphery, and femoral veins; postmortem cases; ref [32];[33];[34]; cited from earlier work.
The target of series [7] is T3, hSERT. Nature of the series: Superfusion release of preloaded [3H]5-HT from HEK-hSERT cells. Type of series: cell-based.
The target of series [8] is T5, h5-HT1A receptor (Homo sapiens, UniProt P08908).
T5 sequence (P08908 1-422): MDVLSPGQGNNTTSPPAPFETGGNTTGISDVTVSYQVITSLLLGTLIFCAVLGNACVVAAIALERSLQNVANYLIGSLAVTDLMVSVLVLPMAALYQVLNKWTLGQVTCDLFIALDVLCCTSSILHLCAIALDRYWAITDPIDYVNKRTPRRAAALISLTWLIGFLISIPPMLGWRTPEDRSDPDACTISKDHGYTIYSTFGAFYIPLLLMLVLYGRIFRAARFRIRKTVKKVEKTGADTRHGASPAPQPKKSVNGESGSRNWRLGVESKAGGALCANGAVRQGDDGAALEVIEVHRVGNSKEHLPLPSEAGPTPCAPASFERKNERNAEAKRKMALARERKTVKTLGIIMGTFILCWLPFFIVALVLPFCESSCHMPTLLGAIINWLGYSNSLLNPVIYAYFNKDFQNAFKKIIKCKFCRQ
Briefly: [3H]8-OH-DPAT binding, HEK-h5-HT1A.

Series [9] has as its target T5, h5-HT1A receptor. Nature of the series: Stimulation of [35S]GTPγS binding, HEK-h5-HT1A membranes. Type of series: biochemical.
Series [10] deals with T6, hVMAT2 (Homo sapiens, UniProt Q05940). Briefly: Superfusion release of preloaded [3H]NE from HEK-hVMAT2 cells. The series is classed as cell-based.
T6 sequence (Q05940 whole entry, the tested form may be a part): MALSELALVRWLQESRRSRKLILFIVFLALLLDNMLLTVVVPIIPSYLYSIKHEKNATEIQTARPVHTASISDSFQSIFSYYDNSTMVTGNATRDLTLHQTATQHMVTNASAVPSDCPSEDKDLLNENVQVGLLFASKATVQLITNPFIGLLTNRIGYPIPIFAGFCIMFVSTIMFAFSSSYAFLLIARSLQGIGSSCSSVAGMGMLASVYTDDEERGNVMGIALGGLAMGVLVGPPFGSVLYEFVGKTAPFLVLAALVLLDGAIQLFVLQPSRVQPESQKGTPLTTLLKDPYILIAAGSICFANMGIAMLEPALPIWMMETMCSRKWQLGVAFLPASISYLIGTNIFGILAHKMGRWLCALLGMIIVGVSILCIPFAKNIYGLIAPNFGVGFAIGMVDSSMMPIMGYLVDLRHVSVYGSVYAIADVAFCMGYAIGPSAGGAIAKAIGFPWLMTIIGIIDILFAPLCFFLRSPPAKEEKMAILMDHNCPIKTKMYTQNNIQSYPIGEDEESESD
For series [11], the target named is T6, hVMAT2. Briefly: Inhibition of [3H]DHTB binding, HEK-hVMAT2 membranes.
Series [12] deals with T3, hSERT. Briefly: Inhibition of [3H]5-HT uptake, intact HEK-hSERT cells. The series is classed as cell-based.
The target of series [13] is T2, hNET. Briefly: cell-based. The series is classed as cell-based.
The target in series [14] is T1, h5-HT2A receptor. Briefly: [125I]DOI binding, HEK-h5-HT2A.
Series [15] has as its target T4, hDAT. Briefly: Inhibition of [3H]DA uptake, intact HEK-hDAT cells. Type of series: cell-based.
Series [16] addresses T7, h5-HT2C receptor (Homo sapiens, UniProt P28335).
T7 sequence (P28335 33-458): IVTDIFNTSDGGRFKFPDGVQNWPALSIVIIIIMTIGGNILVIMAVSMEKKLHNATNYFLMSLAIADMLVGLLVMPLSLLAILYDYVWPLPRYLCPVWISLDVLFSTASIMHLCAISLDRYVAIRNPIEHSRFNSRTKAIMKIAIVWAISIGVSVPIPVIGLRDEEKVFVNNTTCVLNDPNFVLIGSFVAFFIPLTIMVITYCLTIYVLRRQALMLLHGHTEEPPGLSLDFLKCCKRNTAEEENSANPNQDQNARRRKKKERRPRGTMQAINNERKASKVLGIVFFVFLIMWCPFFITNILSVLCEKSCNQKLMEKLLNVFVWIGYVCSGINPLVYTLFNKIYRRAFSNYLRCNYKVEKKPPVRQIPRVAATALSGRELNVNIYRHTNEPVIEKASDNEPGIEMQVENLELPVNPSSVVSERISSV
Briefly: biochemical. The series is classed as binding.

Series [17] has as its target T1, h5-HT2A receptor. Briefly: Inhibition of 5-HT-stimulated IP-1 formation. The series is classed as cell-based.
The target of series [18] is T7, h5-HT2C receptor. Briefly: Inhibition of 5-HT-stimulated IP-1 formation. Type of series: cell-based.
In series [19] the target is T4, hDAT. Nature of the series: Inhibition of [125I]RTI-55 binding, HEK-hDAT membranes.
For series [20], the target named is T6, hVMAT2. Briefly: Inhibition of [3H]5-HT uptake, HEK-hVMAT2 membrane preparation. Type of series: biochemical.

Read-outs that look alike come from different tables or passages of the source.

T1 sequence (P28223 whole entry, the tested form may be a part): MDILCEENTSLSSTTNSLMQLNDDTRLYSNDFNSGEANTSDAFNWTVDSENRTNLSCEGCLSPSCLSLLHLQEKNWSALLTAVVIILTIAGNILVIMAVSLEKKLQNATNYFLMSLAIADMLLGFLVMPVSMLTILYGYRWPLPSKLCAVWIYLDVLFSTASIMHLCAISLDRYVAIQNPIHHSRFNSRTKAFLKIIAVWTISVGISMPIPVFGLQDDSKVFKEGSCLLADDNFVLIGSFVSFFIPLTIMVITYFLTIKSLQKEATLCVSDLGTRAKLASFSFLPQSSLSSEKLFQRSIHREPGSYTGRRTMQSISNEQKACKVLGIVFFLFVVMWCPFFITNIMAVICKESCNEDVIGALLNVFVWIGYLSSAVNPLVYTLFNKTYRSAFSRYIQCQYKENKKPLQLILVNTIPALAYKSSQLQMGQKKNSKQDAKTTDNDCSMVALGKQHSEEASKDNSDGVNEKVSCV
T2 sequence (P23975 whole entry, the tested form may be a part): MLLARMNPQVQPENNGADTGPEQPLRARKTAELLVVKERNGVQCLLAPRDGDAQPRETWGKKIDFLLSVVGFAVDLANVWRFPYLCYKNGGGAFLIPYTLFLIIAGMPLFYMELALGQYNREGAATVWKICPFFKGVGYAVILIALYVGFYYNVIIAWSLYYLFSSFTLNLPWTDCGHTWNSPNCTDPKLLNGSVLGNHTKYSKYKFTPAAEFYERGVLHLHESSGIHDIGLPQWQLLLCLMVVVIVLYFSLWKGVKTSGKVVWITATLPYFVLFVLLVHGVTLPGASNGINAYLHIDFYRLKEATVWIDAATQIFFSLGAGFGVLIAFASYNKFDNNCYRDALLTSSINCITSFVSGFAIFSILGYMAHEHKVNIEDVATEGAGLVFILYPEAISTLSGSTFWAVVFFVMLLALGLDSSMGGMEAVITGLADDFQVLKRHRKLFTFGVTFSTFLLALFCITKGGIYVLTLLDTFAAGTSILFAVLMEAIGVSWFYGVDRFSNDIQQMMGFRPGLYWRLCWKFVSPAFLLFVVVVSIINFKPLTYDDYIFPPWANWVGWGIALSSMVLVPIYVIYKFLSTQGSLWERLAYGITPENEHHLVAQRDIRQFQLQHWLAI

`CCN(CC)C(=O)[C@@H]1C=C2c3cccc4[nH]cc(c34)C[C@H]2N(C)C1` [LSD, lysergic acid diethylamide]: the “h5-HT2A agonist activity, inositol monophosphate” value on h5-HT2A receptor [1] was “full agonists with potencies in the low nanomolar range”.
Take `CNC(C)C(=O)c1ccc2c(c1)OCO2` (stereo not drawn) [Methylone, 3,4-methylenedioxy-N-methylcathinone]: the EC50 was 0.426 ± 0.067 µM at hNET [2]; 11.8 ± 5.6 µM on hDAT [5]; 6.7 ± 2.78 µM at hSERT [7]; 143 ± 32 µM at h5-HT1A receptor [9]; greater than 100 µM at hVMAT2 [10]. Further, the “time of peak [3H]NE release after addition of drug” value on hNET [2] lay in the range of 8 to 16 min. For the same compound, on hNET [2] (relative to maximal AUC induced by METH (0.3 or 1 µM)), the “% maximum release ± sem, hNET [3H]NE” value was found to be 122 ± 32%. In addition, the Ki on hNET [3] is 16.5 ± 4.9 µM; on hSERT [4] it was 95.5 ± 4.3 µM; at hSigma1 receptor, 25.5 ± 7.7 µM; at h5-HT1A receptor [8] it was 63.3 ± 0.98 µM; at hVMAT2 [11], greater than 1000 µM; on h5-HT2A receptor [14], 48.5 ± 8 µM. Besides, the Ki on h5-HT2C receptor [16] amounted to 10.6 ± 1.8 µM; on hDAT [19] it was 5.02 ± 0.29 µM. For the same compound, the entries for the “% maximum release ± sem, hDAT [3H]DA” value on hDAT [5] and on hDAT [5] (listed as methylone) were 41 ± 12% and 41%, respectively. For the same compound, the “time of peak/maximal [3H]DA release after addition of drug” value on hDAT [5] (4-FMC 10 µM to 300 µM, mephedrone 30 µM, methylone 100 µM) is recorded as no more than 6 min. The “fold less potent than METH to induce [3H]DA release” value at hDAT [5] (EC50 compared to METH) stood at 30 fold. In addition, the postmortem blood concentration in [6] is 0.06 to 3.3 mg/L. Moreover, the “postmortem blood concentration (molar)” value in [6] was 0.25 to 14 µM. The “% maximum release ± sem, hSERT [3H]5-HT” value at hSERT [7] turned out to be 78 ± 18%. For the same compound, the “time of peak [3H]5-HT release after addition of drug” value at hSERT [7] is “about 6 min”. Besides, the Emax at h5-HT1A receptor [9] (read-out: h5-HT1A Stimulation of [35S]GTPγS binding % maximum stimulation ± sem) was 47%. For the same compound, the “Release of [3H]NE % maximum release ± sem or range, hVMAT2” value was 21.8 ± 8.5% at hVMAT2 [10] and “less than 35%” at hVMAT2 [10] (listed as methylone). Also, the IC50 is 1.92 ± 0.35 µM on hSERT [12]; 0.234 ± 0.055 µM against hNET [13]; 0.343 ± 0.024 µM against hDAT [15]; 159 ± 11 µM at h5-HT2A receptor [17]; greater than 1000 µM against h5-HT2C receptor [18]; greater than 100 µM against hVMAT2 [20]. On hSERT [12] ([125I]RTI-55 Ki / [3H]5-HT uptake IC50), the “ratio of binding Ki to uptake IC50, hSERT” value is given as 50. Further, the “ratio of binding Ki to uptake IC50, hNET” value at hNET [13] ([125I]RTI-55 Ki / [3H]NE uptake IC50) is listed as 71. The “ratio of binding Ki to uptake IC50, hDAT” value on hDAT [15] ([125I]RTI-55 Ki / [3H]DA uptake IC50) was found to be 15. Moreover, the “h5-HT2A Inhibition of 5-HT-stimulated IP-1 formation % maximum inhibition ± sem” value at h5-HT2A receptor [17] (100 nM 5-HT, normalized to maximal inhibition by ketanserin (10 µM)) was 84.7 ± 5.2%. Further, on h5-HT2C receptor [18] (100 nM 5-HT, normalized to maximal inhibition by SB242084 (1 µM)), the “h5-HT2C Inhibition of 5-HT-stimulated IP-1 formation % maximum inhibition ± sem” value was 28.0 ± 7.5%.
As to `NCCc1c[nH]c2ccc(O)cc12` [5-HT, 5-hydroxy-tryptamine], the “h5-HT2A agonist activity, inositol monophosphate” value on h5-HT2A receptor [1] is reported as “full agonists with potencies in the low nanomolar range”.
